The record followed here is patent publication US20180106782A1, “HIGH THROUGHPUT CARDIOTOXICITY SCREENING PLATFORM” (The Board of Trustees of the Leland Stanford Junior …, priority 2016, published 2018).

Molecules are shown by their SMILES.

The assay has as its system μpatterned hiPSC-CMs. The assay can be described thus: sarcomere length (sl) and sarcomere shortening (ss) from videos of labeled myofibrils. In kind it is cell-based, human. The settings on record: for average values of sl (sarcomere length): single cell with labeled myofibrils (FIG. 7A, 7E). As for the experimental part: We analyzed videos of beating patterned hiPSC-CMs with LifeAct-labeled myofibrils (Ribeiro 2015a) to quantify the organization and dynamics of sarcomeres along myofibrils. Sarcomere shortening and movement during the contractile cycle was determined from analyzing how the size of all labeled sarcomeres in a single hiPSC-CM varies during each of its contractile cycles. The minimal length that separates two proximal Z-lines defines sarcomere size. LifeAct labels actin between Z-lines, which correspond to dark lines in LifeAct-labeled myofibrils. (Ribeiro 2015a) Therefore, the minimal distance between adjacent dark lines in LifeAct-labeled myofibrils defines sarcomere size. We used four different approaches to quantify sarcomere size along LifeAct-labeled myofibrils from frames of single beating hiPSC-CMs (FIG. 12) and used the second approach for performing better when analyzing videos with minimal user intervention.
The second approach (FIG. 12B) is a novel method that we developed to determine sarcomere lengths in each frame without the need of curve-fitting procedures or radial Fourier transforms. The approach consists of automatically measuring the length of the segment between adjacent Z-lines that is parallel to the direction of myofibril alignment (FIG. 15). The algorithm for this approach measured the length from Z-line i to Z-line i+1 using information on myofibril orientation in the region around Z-line i and Z-line i+1 and considering a skeleton of sarcomeres generated as previously detailed for the first approach. The algorithm developed first a map of all points that compose the sarcomere skeleton and each point was taken once as a starting location of a path along the direction of myofibril orientation that stopped when another Z-line in the skeleton was reached (FIG. 15). The length between adjacent Z-lines was therefore defined as the Euclidean distance between start and end points calculated with this method (FIG. 15). The path was calculated pixel by pixel within the skeletonized image. For each new pixel of the path, the algorithm evaluated what the other pixel of the path was based on the local orientation of the myofibril. For pixels that were starting points or pixels already in a path, the local orientation angle of myofibrils was taken as the deciding factor to determine the next path pixel. In the algorithm, we particularly defined that the y direction of the path could be chosen freely, but only pixels in the +x direction could be candidates for the next element of the path (FIG. 15). This definition derived from the fact that every point composing the skeleton was considered as a starting point and because orientations of myofibrils are in the [0,Th] range. In relation to a known point of a path, the next neighboring pixel to be included as the next element of that path could be the pixel on the right, on the top, on the bottom, on the top right or on the bottom right (FIG. 15-B). Given this condition, a 10° angle or a 0° angle of known myofibril orientation lead to the same decision for the next pixel to include in the path: the pixel on the right. We estimated the local orientation of myofibrils through the MATLAB-written code RIDGEORIENT. (Kovesi 2000) This tool indicates the principle ridge direction through local gradient variations. By definition, the gradient is […] to the main orientation. (Krause 2009)
The global orientation of a myofibril between Z-lines was also taken in consideration for deciding the next pixel in the path between Z-lines (FIG. 15) because small angles can add up during the extending of the line defined by the path and better reveal the real myofibril orientation. For example, starting at a pixel on a Z-line (x1, y1) with a local orientation angle θ1=10°, the next pixel would have to be (x1+1, y1). If θ2=10°, the next pixel would again be to the right, adding (x1+2, y1) to the path. […]

As to `COC(=O)N1CCN(Cc2cccc(NC(=O)Nc3ccc(C)nc3)c2F)CC1` [omecamtiv mecarbil], the “average values of sl (sarcomere length)” value is on record as “decreased”. Further, the maximal average sl entry (chronic and acute effects of omecamtiv mecarbil (FIG. 7F)) was “decrease”. Further, the minimum average sl entry (chronic and acute effects of omecamtiv mecarbil (FIG. 7G)) is “decrease”. Besides, the average ss result (chronic and acute effects of omecamtiv mecarbil (FIG. 7H)) is “decrease”.
For `CC(C)NCC(O)c1ccc(O)c(O)c1` (stereo not shown) [isoproterenol], the “average values of sl (sarcomere length)” value is recorded as “decreased”. The minimal average sl result (0.1 μM isoproterenol) is on record as “decreased”. Under “0.1 μM isoproterenol (FIG. 7D)”, the “ss (sarcomere shortening)” value is reported as “considerably increased”. Also, the minimal average sl entry (1 μM isoproterenol) is listed as “decrease even more”. Moreover, for the setting “1 μM isoproterenol (FIG. 7D)”, the “increase of ss (sarcomere shortening)” value is listed as “not with 1 μM”. In addition, the “maximal mean values of sl” value (1 μM isoproterenol, relative to before adding (FIG. 7B)) is given as “decreased”.
